Source: patent US7511144B2, “Reverse hydroxamic acid derivatives” (Kaken Pharmaceutical Co., Ltd., priority 2001, dated 2009)

What was measured:
Assay type in all cases: biochemical
Human MMP13 = target: T1, Human MMP13 (Homo sapiens, UniProt P45452); assay: MMP13 inhibition experiment; settings: concentration required for 50% inhibition of enzyme activity; read-out: IC50 value MMP-13
T1 construct: purchased Chemicon CC068

Human MMP2 = target: T2, Human MMP2 (Homo sapiens, UniProt P08253); assay: MMP2 inhibition experiment; settings: concentration required for 50% inhibition of enzyme activity; read-out: IC50 value MMP-2
T2 construct: purchased Calbiochem 444213
T2 sequence (P08253 110-660): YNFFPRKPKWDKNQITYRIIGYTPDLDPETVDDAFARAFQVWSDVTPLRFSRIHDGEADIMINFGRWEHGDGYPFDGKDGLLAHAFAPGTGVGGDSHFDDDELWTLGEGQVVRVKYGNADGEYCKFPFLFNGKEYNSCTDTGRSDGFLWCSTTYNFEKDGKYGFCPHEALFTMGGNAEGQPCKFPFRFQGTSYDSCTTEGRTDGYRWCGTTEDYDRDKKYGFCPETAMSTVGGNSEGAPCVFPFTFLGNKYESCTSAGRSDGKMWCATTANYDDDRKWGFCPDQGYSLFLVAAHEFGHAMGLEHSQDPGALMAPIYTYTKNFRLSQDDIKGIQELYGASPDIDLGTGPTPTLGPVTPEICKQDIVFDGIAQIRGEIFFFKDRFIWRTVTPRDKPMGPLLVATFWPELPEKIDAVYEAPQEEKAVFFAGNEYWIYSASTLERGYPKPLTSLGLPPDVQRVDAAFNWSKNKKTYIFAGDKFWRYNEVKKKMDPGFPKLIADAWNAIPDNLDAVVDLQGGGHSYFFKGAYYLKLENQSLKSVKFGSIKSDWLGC

TACE = target: T3, TACE (Homo sapiens, UniProt P78536); assay: TACE inhibition experiment (in vitro)
T3 construct: made in house; host or cells: mammalian cells or insect cells

Human MMP14 = target: T4, Human MMP14 (Homo sapiens, UniProt P50281); assay: MMP14 inhibition experiment; settings: concentration required for 50% inhibition of enzyme activity; read-out: IC50 value MMP-14
T4 construct: purchased Biogenesis or Calbiochem 5980-1461 or 475935
Method in brief: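 Fluorescence assay: substrate Dnp-Pro-Cha-Gly-Cys(Me)-His-Ala-Lys(Nma)-NH2 (20 μM before equal-volume mixing) incubated at 37° C for 5 hours with 4 ng human MMP14.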

Human MMP17 = target: T5, Human MMP17 (Homo sapiens, UniProt Q9ULZ9); assay: MMP17 inhibition test; settings: concentration required for 50% inhibition of enzyme activity; read-out: IC50 value MMP-17
T5 construct: purchased Calbiochem 475940
T5 sequence (Q9ULZ9 126-300 limits assumed): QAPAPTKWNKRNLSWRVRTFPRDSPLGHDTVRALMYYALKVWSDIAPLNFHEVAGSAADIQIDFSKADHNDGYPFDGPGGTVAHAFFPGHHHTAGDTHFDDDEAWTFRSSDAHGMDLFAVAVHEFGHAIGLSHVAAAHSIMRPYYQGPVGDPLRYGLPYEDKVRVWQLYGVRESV

Human MMP1 = target: T6, Human MMP1 (Homo sapiens, UniProt P03956); assay: MMP1 inhibition experiment; settings: read-out: IC50 value MMP-1
T6 construct: purchased Calbiochem 444208
T6 sequence (P03956 100-469): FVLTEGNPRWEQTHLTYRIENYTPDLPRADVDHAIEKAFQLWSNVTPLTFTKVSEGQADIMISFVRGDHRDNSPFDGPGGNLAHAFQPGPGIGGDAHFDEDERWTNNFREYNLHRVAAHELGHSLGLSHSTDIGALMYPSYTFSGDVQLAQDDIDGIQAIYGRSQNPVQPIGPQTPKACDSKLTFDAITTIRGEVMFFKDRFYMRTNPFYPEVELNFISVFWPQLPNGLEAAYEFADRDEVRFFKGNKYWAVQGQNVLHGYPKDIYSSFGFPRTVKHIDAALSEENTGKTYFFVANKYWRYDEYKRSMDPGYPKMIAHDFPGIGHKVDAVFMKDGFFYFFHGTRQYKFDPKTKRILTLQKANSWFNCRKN

Human MMP8 = target: T7, Human MMP8 (Homo sapiens, UniProt P22894); assay: MMP8 inhibition experiment; settings: concentration required for 50% inhibition of enzyme activity; read-out: IC50 value MMP-8
T7 construct: purchased Calbiochem 444229
Method in brief: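 Human MMP8 activated with APMA for 1 h at 37° C, then incubated with fluorogenic peptide MOCAc-Pro-Leu-Gly-Leu-A2pr(Dnp)-Ala-Arg-NH2 (20 μM stock) for 5 hours at 37° C. Fluorescent substrate cleavage serves as read-out.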

Human MMP3 = target: T8, Human MMP3 (Homo sapiens, UniProt P08254); assay: MMP3 inhibition experiment; settings: concentration required for 50% inhibition of enzyme activity; read-out: IC50 value MMP-3
T8 construct: purchased Calbiochem 444217
Method in brief: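 Recombinant human MMP3 (5 ng) mixed with fluorogenic peptide NFF-3 (20 μM stock solution) and incubated 5 hours at 37° C; cleavage followed by fluorescence of the quenched substrate.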

Human MMP9 = target: T9, Human MMP9 (Homo sapiens, UniProt P14780); assay: MMP9 inhibition experiment; settings: read-out: IC50 value MMP-9
T9 construct: purchased Calbiochem 444231
T9 sequence (P14780 107-707 limits assumed): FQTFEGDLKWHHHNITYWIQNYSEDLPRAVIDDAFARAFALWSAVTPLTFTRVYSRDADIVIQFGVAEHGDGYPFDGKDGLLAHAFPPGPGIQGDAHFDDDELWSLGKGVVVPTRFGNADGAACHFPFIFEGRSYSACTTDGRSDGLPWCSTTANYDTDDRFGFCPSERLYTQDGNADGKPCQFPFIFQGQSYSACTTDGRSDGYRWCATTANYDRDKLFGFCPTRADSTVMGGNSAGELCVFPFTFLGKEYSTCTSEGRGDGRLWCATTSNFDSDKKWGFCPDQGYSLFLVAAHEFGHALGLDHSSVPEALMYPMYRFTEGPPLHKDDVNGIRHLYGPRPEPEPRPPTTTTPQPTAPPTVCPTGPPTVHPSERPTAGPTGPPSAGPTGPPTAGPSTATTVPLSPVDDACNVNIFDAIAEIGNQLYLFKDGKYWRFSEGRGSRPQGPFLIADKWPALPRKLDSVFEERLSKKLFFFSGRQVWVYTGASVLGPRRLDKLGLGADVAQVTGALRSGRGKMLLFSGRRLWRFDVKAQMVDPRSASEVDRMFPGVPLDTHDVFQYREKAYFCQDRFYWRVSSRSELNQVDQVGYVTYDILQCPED

T8 sequence (P08254 100-272 limits assumed): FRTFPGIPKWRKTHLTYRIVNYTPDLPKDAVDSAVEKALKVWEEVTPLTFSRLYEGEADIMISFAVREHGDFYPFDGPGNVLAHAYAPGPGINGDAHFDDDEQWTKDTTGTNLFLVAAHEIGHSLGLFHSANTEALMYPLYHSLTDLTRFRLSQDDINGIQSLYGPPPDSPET
T3 sequence (P78536 215-824): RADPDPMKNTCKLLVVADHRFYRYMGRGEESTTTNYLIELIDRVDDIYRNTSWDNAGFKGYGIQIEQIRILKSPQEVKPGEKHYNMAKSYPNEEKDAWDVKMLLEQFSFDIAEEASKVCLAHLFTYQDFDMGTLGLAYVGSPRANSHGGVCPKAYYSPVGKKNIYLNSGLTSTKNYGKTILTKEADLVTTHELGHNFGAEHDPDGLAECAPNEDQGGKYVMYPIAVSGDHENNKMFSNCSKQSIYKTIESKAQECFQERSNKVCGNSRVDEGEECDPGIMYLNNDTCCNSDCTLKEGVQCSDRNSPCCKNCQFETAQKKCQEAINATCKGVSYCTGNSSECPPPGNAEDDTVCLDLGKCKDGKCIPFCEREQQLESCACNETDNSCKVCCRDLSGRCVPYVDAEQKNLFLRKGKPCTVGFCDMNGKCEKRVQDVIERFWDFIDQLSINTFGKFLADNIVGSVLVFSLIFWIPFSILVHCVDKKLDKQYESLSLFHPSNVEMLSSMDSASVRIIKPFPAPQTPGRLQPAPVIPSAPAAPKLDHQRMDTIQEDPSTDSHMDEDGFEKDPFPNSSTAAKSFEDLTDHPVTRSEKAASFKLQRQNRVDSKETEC
T7 sequence (P22894 101-467): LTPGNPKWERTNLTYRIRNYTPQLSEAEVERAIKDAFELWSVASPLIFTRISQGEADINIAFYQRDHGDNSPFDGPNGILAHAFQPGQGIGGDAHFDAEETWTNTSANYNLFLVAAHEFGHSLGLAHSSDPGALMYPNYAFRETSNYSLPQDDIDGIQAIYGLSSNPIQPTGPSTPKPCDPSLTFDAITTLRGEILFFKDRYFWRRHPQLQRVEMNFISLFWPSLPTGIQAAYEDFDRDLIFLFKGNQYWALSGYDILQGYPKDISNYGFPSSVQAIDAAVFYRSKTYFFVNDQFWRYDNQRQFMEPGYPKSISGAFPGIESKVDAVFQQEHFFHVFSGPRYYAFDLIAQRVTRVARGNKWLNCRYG

IC50 (Human MMP13)	IC50 (Human MMP2)	IC50 (TACE)	IC50 (Human MMP14)	IC50 (Human MMP17)	IC50 (Human MMP1)	IC50 (Human MMP8)	IC50 (Human MMP3)	IC50 (Human MMP9)	SMILES
1.4 µM	0.78 µM	0.02 µM	70 µM	0.06 µM	> 100 µM	10 µM	0.4 µM	38 µM	CCC(CC)CN1CCC(CC(CS(=O)(=O)c2ccc(OCc3cc(C)nc4ccccc34)cc2)N(O)C=O)CC1 (stereo not drawn) [Example I-71]
1.4 µM	2 µM	0.024 µM	48 µM	0.28 µM	90 µM	10 µM	0.7 µM	64 µM	Cc1cc(COc2ccc(S(=O)(=O)CC(C3CCCN(C(=O)OC(C)(C)C)C3)N(O)C=O)cc2)c2ccccc2n1 (stereo not drawn) [Example I-72]
50 µM	26 µM	0.014 µM	> 100 µM	0.66 µM	> 100 µM	18 µM	1.7 µM	> 100 µM	CC(=O)N1CCC(C(CS(=O)(=O)c2ccc(OCc3cc(C)nc4ccccc34)cc2)N(O)C=O)CC1 (stereo not drawn) [Example I-73]
20 µM	41 µM	0.005 µM	60 µM	10 µM	70 µM	65 µM	6 µM	50 µM	Cc1ccc2nc(C)cc(COc3ccc(S(=O)(=O)CC(C=C4CCOCC4)N(O)C=O)cc3)c2c1 (stereo not drawn) [Example I-74, N-{2-[4-(2.6-dimethylquinolin-4-ylmethoxy)benzenesulfonyl]-1-(tetrahydropyran-4-ylidenemethyl)ethyl}-N-hydroxyformamide]
22 µM	50 µM	0.0041 µM	40 µM	11 µM	65 µM	90 µM	5.5 µM	35 µM	Cc1ccc2nc(C)cc(COc3ccc(S(=O)(=O)CC(C=C4CCC(=NO)CC4)N(O)C=O)cc3)c2c1 (stereo not drawn) [Example I-75]
28 µM	71 µM	0.026 µM	55 µM	7.5 µM	74 µM	> 100 µM	3 µM	80 µM	Cc1ccc2nc(C)cc(COc3ccc(S(=O)(=O)CC(c4ccccc4C)N(O)C=O)cc3)c2c1 (stereo not drawn) [Example I-77]
16 µM	36 µM	0.0031 µM	55 µM	3.9 µM	> 100 µM	52 µM	2.8 µM	> 100 µM	Cc1cncc(C(CS(=O)(=O)c2ccc(OCc3cc(C)nc4ccc(C)cc34)cc2)N(O)C=O)c1 (stereo not drawn) [Example I-78]
20 µM	58 µM	0.015 µM	46 µM	6.2 µM	68 µM	73 µM	2.9 µM	70 µM	Cc1cc(COc2ccc(S(=O)(=O)CC(c3ccccc3C)N(O)C=O)cc2)c2cc(F)ccc2n1 (stereo not drawn) [Example I-79, N-{2-[4-(6-fluoro-2-methylquinolin-4-ylmethoxy)benzenesulfonyl]-1-o-tolylethyl}-N-hydroxyformamide]
23 µM	18 µM	0.0045 µM	> 100 µM	7 µM	> 100 µM	27 µM	4 µM	> 100 µM	Cc1cncc(C(CS(=O)(=O)c2ccc(OCc3cc(C)nc4ccc(F)cc34)cc2)N(O)C=O)c1 (stereo not drawn) [Example I-80]
17 µM	11 µM	0.0051 µM	64 µM	8 µM	> 100 µM	20 µM	2.2 µM	> 100 µM	Cc1ccc(C(CS(=O)(=O)c2ccc(OCc3cc(C)nc4ccc(F)cc34)cc2)N(O)C=O)cn1 (stereo not drawn) [Example I-81]
26 µM	4.2 µM	3.5 µM	38 µM	30 µM	92 µM	> 100 µM	50 µM	32 µM	Cc1ccccc1C(CS(=O)(=O)c1ccc(OCc2ccc3ccccc3n2)cc1)N(O)C=O (stereo not drawn) [Example I-82]
23 µM	7 µM	2.5 µM	55 µM	36 µM	> 100 µM	> 100 µM	37 µM	53 µM	O=CN(O)C(C=C1CCC2(CC1)OCCO2)CS(=O)(=O)c1ccc(OCc2ccc3ccccc3n2)cc1 (stereo not drawn) [Example I-83]
22 µM	4.5 µM	0.36 µM	60 µM	31 µM	> 100 µM	70 µM	50 µM	56 µM	O=CON=C1CCC(=CC(CS(=O)(=O)c2ccc(OCc3ccc4ccccc4n3)cc2)N(O)C=O)CC1 (stereo not drawn) [Example I-85]
22 µM	5.8 µM	0.42 µM	70 µM	31 µM	> 100 µM	> 100 µM	61 µM	70 µM	O=CN(O)C(C=C1CCC(=NO)CC1)CS(=O)(=O)c1ccc(OCc2ccc3ccccc3n2)cc1 (stereo not drawn) [Example I-86]
8 µM	4 µM	0.14 µM	> 100 µM	42 µM	> 100 µM	6 µM	40 µM	> 100 µM	Cc1cc(COc2ccc(S(=O)(=O)CC(C=C3CCOCC3)N(O)C=O)cc2)cc(C)n1 (stereo not drawn) [Example I-115]
39 µM	26 µM	0.16 µM	> 100 µM	42 µM	> 100 µM	28 µM	70 µM	> 100 µM	COCc1cc(COc2ccc(S(=O)(=O)CC(C=C3CCOCC3)N(O)C=O)cc2)cc(C)n1 (stereo not drawn) [Example I-116]
28 µM	12 µM	0.62 µM	> 100 µM	22 µM	> 100 µM	20 µM	20 µM	> 100 µM	COCc1cc(COc2ccc(S(=O)(=O)CC(c3ccccc3C)N(O)C=O)cc2)cc(C)n1 (stereo not drawn) [Example I-117]
31 µM	20 µM	0.23 µM	> 100 µM	40 µM	> 100 µM	32 µM	30 µM	> 100 µM	COCc1cc(COc2ccc(S(=O)(=O)CC(C=C3CCC4(CC3)OCCO4)N(O)C=O)cc2)cc(C)n1 (stereo not drawn) [Example I-118]
60 µM	50 µM	0.32 µM	> 100 µM	58 µM	> 100 µM	60 µM	> 100 µM	> 100 µM	COCc1cc(COc2ccc(S(=O)(=O)CC(C=C3CCC(=O)CC3)N(O)C=O)cc2)cc(C)n1 (stereo not drawn) [Example I-119]
